One assay deals with T1, LcsG (Purpureocillium lilacinum, UniProt A0A179H2P2).
T1 construct: pACYC-lcsG was generated by integrating the lcsG gene from the PLBJ-1 cDNA into the protein expression vector pACYCDuet-1; His6 (N); His6 (C); made in house; host or cells: E. coli ArcticExpress (DE3)
T1 sequence (A0A179H2P2 1-468): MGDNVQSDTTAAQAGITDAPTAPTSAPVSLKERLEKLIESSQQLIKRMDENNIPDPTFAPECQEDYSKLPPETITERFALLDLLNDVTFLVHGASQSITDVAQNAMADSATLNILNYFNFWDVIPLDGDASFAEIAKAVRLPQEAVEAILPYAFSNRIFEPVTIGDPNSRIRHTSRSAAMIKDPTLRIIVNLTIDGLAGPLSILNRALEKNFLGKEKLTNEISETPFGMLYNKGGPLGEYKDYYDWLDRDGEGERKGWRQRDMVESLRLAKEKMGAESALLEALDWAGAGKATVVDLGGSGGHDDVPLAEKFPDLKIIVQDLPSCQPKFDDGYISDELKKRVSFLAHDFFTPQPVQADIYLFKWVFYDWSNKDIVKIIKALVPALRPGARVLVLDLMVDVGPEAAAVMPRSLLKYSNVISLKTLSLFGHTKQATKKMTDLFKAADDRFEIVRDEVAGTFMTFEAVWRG
As to the kind of experiment: Michaelis-Menten enzyme kinetics of LcsG with leucinostatin substrates. In kind it is biochemical, Purpureocillium lilacinum PLBJ-1. To be noted: for Kcat/Km: compound as substrate of LcsG, from the Michaelis-Menten fit; for Kcat / Km: compound as substrate, 1 μM LcsG, 34 °C, 30 min, product formation by LC-MS, nonlinear regression, n = 3. The method, then: The compounds were quantified by an external standard method and calibration curves were constructed using LeuA0 and LeuK3. In this study, LeuA0 was diluted to concentrations of 25, 50, 100, 250, and 500 nM. LeuK3 was also diluted to concentrations of 50, 100, 250, 500, and 1000 nM. Dilutions were prepared in MeCN, and calibration curves were constructed using the software GraphPad Prism 9.
The kinetic constants of LcsG were determined by the following approach: 1 μM LcsG was assayed against different specific concentrations of the substrates LeuA (2, 4, 8, 10, 20, 40, 80, 100, 120, 150, and 200 μM) and LeuK0 (4, 8, 10, 20, 40, 80, 100, 120, 140, and 160 μM). The initial rate of the reaction was measured by monitoring the formation of products (LeuA0 or LeuK3) at 34 °C for 30 min. The rates were plotted against substrate concentration using the Michaelis‒Menten kinetics equation by nonlinear regression analysis with the software GraphPad Prism 9, and Km and Kcat constants were generated from the resulting Michaelis‒Menten plot.
LC‒MS analyses were performed on an Agilent 1290 Infinity II HPLC with an Agilent Infinity Lab single quadrupole mass selective detector by using an Agilent Zorbax Eclipse Plus C18 reversed-phase column (2.1 × 100 mm, 2.7 μm). Water (A) with 0.1% (v/v) formic acid and acetonitrile (B) were used as the solvents at a flow rate of 0.25 ml min^−1. The substances were eluted with 10% (v/v) B for 1 min, subjected to a linear gradient from 10 to 100% (v/v) B for 12 min, washed with 100% solvent B for 5 min, and equilibrated with 5% solvent B for 10 min at a flow rate of 0.25 ml/min. The mass spectrometer was set in electrospray positive ion mode for ionization.

In another assay the test system is C. neoformans. To be noted: cited from earlier work.
In assay [1] the test system is P. infestans. To be noted: cited from earlier work.
Assay [2] concerns P. infestans.

Where two headings read alike, the source gives them in different places.

Broadly, the Km is the substrate concentration at which the rate is half of its maximum.

As to leucinostatin A [LeuA], at LcsG, the Kcat/Km worked out at 65.39 M⁻¹ s⁻¹, the Kcat was determined as 0.00075 s⁻¹ and the Km worked out at 11.5 µM. For the same substance, in the assay with C. neoformans, the “inhibitory effects on C. neoformans” value is listed as “inhibitory effects”. The “inhibitory effects on P. infestans” value with P. infestans [1] is reported as “inhibitory effects”.

As to leucinostatin B [LeuB], the “inhibitory effects on C. neoformans” value in the assay with C. neoformans was “inhibitory effects”. Also, in the assay with P. infestans [1] (previous studies), the “inhibitory effects on P. infestans” value is given as “inhibitory effects”.

Take leucinostatin K0 [LeuK0]: on LcsG, the Kcat/Km was found to be 32.94 M⁻¹ s⁻¹, the Kcat worked out at 0.00624 s⁻¹ and the Km was found to be 189 µM. Moreover, in the assay with C. neoformans H99, the “growth inhibition, agar diffusion assay” value is recorded as “inhibitory effects”. Besides, the “growth inhibition, agar diffusion assay” value in the assay with P. infestans [2] is “inhibitory effects”.

The record behind these values is article PMC11193748 (Communications Biology, 2024).
